From patent publication US8969395B2, “Triterpenoid derivatives useful as antiproliferative agents” (Universidade de Coimbra, priority 2009, dated 2015)

Tests used:
Type in all cases: cell-based, human
[1] = test system: Jurkat cells; test: Cell cycle analysis by flow cytometry (FACS, PI), Jurkat; conditions: compound at its IC50, 72 h
Experimental: (§1) The effects on the cell cycle of some of these compounds were assessed through flow cytometry by using a fluorescence-activated cell sorter (FACS) (Table 5 below). For this assay 2.3×10^5 HepG2 cells/well, 2.9×10^4 HeLa cells/well, 1.6×10^5 Jurkat cells/well and 1.4×10^5 Chang liver cells/well were plated in 6 well plates with 2 ml of medium. The number of cells was determined by the relationship number of cells/area wells, considering the number of cells that were cultured in 96-well plates. […] Chang liver cells were incubated with compounds 20, […] at concentrations corresponding to the IC80 determined for HepG2 at 72 h. Following 72 h. of incubation, cells were harvested by mild trypsinization, collected by centrifugation and stained in ice-cold Tris-buffered saline (TBS), containing 1 mg/ml PI, 10 mg/ml RNAse free of DNAase and 0.1% Igepal CA-630 for 1 h at 4° C. FACS analysis was carried out at 488 nm in an Epics XL flow cytometer (Coulter Corporation, Hialeah, Fla.). Data from 8×10^3 cells were collected and analyzed using Multicycle program (Phoenix Flow Systems, San Diego, Calif.). All experiments were performed three times with three replicates per experiment. […] To explore the selectivity of the effect on tumor cells, we also tested compounds 20, 44 and 46 in a non-malignant cell line. Chang liver cells were treated with the compounds at the IC80 values determined for HepG2 after 72 h of incubation and no effect was observed, indicating a selective effect of these agents (Table 5 below).

[2] = test system: HeLa cells; test: Cell cycle analysis by flow cytometry (FACS, PI), HeLa; conditions: compound at its IC50, 72 h
Experimental: as §1

[3] = test system: HepG2 cells; test: Cell cycle analysis by flow cytometry (FACS, PI), HepG2; conditions: for Phase of cell cycle (% of cells) G0/G1 / Phase of cell cycle (% of cells) G2/M / Phase of cell cycle (% of cells) S: HepG2, compound at its IC50, 72 h; for decrease in the percentage of cells in the G0/G1 phase / increase in the population in S phase: HepG2, with respect to untreated cells, at IC50, 72 h
Experimental: as §1

[4] = test system: Chang liver cells; test: Cell cycle analysis by flow cytometry (FACS, PI), Chang liver; conditions: for effect on cell cycle in non-malignant cell line: IC80 values determined for HepG2, 72 h; for Phase of cell cycle (% of cells) G0/G1 / Phase of cell cycle (% of cells) G2/M / Phase of cell cycle (% of cells) S: compound at IC80 determined for HepG2, 72 h
Experimental: The effects on the cell cycle of some of these compounds were assessed through flow cytometry by using a fluorescence-activated cell sorter (FACS) (Table 5 below). For this assay 2.3×10^5 HepG2 cells/well, 2.9×10^4 HeLa cells/well, 1.6×10^5 Jurkat cells/well and 1.4×10^5 Chang liver cells/well were plated in 6 well plates with 2 ml of medium. The number of cells was determined by the relationship number of cells/area wells, considering the number of cells that were cultured in 96-well plates. […] Following 72 h. of incubation, cells were harvested by mild trypsinization, collected by centrifugation and stained in ice-cold Tris-buffered saline (TBS), containing 1 mg/ml PI, 10 mg/ml RNAse free of DNAase and 0.1% Igepal CA-630 for 1 h at 4° C. FACS analysis was carried out at 488 nm in an Epics XL flow cytometer (Coulter Corporation, Hialeah, Fla.). Data from 8×10^3 cells were collected and analyzed using Multicycle program (Phoenix Flow Systems, San Diego, Calif.). All experiments were performed three times with three replicates per experiment. […] To explore the selectivity of the effect on tumor cells, we also tested compounds 20, 44 and 46 in a non-malignant cell line.

[5] = test system: HeLa cells; test: Apoptosis, Annexin V-FITC/PI FACS, HeLa; conditions: at IC50, 72 h, FIG. 8
Experimental: (§2) Assessment of apoptosis was performed 72 h after treatment with derivatives at their IC50. Briefly, the same number of HepG2, HeLa, Jurkat and Chang liver cells as in the cell cycle assay were treated with compounds 20, 44, 46 and betulinic acid 2, as described above. Cells were collected washed once in ice-sold binding buffer (10 mM HEPES/NaOH, pH 7.4, 140 mM NaCl, 2.5 mM CaCl2) and ressuspended in the same buffer (95 μl) at a maximum, of 8×10^5 cells/ml. Annexin V-FITC conjugate (1 μg/ml) was added and incubated for 30 min at room temperature in darkness. Just before FACS analysis, cells were stained with 20 μl of […]. Approximately 1×10^4 cells were analysed for each histogram and experiments were performed three times with triplicates per experiment. FACS analysis using Annexin V-FITC staining and PI accumulation was used to differentiate early apoptotic cells (Annexin V^+ and PI^−) from necrotic or late apoptotic cells (Annexin V^+ and PI^+). […] In comparison with untreated controls, compound 44 treatment of HepG2 cells generated apoptosis in 53% of cells (42% of early apoptosis and 11% of late apoptosis), compound 46 generated apoptosis in 38% of cells (28% of early apoptosis plus 10% late apoptosis) and compound 20 induced apoptosis in 29% of cells (22% of early apoptosis plus 7% late apoptosis) (FIG. 8).

[6] = test system: HepG2 cells; test: Apoptosis, Annexin V-FITC/PI FACS, HepG2; conditions: HepG2, at IC50, 72 h; for effectiveness at inducing apoptosis: FIG. 8; for apoptosis (% of cells, early plus late): in comparison with untreated controls
Experimental: as §2

[7] = test system: Chang liver (normal liver cell line); test: Apoptosis, Annexin V-FITC/PI FACS, Chang liver; conditions: at the IC80 found for HepG2, FIG. 8
Experimental: as §2, with “Briefly,” for “Assessment of apoptosis was performed 72 h after treatment with derivatives at their IC50. Briefly,”

Row | Structure (SMILES) | Phase of cell cycle (% of cells) G0/G1 [1] | Phase of cell cycle (% of cells) G2/M [1] | Phase of cell cycle (% of cells) S [1] | Phase of cell cycle (% of cells) G0/G1 [2] | Phase of cell cycle (% of cells) G2/M [2] | Phase of cell cycle (% of cells) S [2] | Phase of cell cycle (% of cells) G0/G1 [3] | Phase of cell cycle (% of cells) G2/M [3] | Phase of cell cycle (% of cells) S [3] | decrease in the percentage of cells in the G0/G1 phase [3] [%] | increase in the population in S phase [3] [%] | effect on cell cycle in non-malignant cell line [4] | Phase of cell cycle (% of cells) G0/G1 [4] | Phase of cell cycle (% of cells) G2/M [4] | Phase of cell cycle (% of cells) S [4] | effectiveness at inducing apoptosis [5] | early apoptosis (Annexin V+ and PI-) [6] [%] | late apoptosis (Annexin V+ and PI+) [6] [%] | effectiveness at inducing apoptosis [6] | apoptosis (% of cells, early plus late) [6] | other results
1 | C=C(C)[C@@H]1CC[C@]2(C(=O)n3ccnc3)CC[C@]3(C)[C@H](CC[C@@H]4[C@@]5(C)C=CC(=O)C(C)(C)[C@@H]5CC[C@]43C)[C@@H]12 [Compound 46, 28-(1H-imidazol-1-yl)-lup-1,20 (29)-dien-3,28-dione] | 49.6 ± 2.6 % of cells | 20.7 ± 2.4 % of cells | 29.8 ± 0.8 % of cells | 64.6 ± 2.4 % of cells | 9.7 ± 1.3 % of cells | 25.6 ± 1.5 % of cells | 54.7 ± 1.5 % of cells | 14.3 ± 1.0 % of cells | 30.7 ± 0.6 % of cells | 7 | 12 | no effect | 68.2 ± 4.9 % of cells | 9.2 ± 1.4 % of cells | 22.6 ± 3.8 % of cells | extremely effective | 28 | 10 | extremely effective | 38 % of cells | apoptosis induction in normal liver cell line [7]: no effect
2 | C=C(C)[C@@H]1CC[C@]2(C(=O)n3ccnc3)CC[C@]3(C)[C@H](CC[C@@H]4[C@@]5(C)CCC(=O)C(C)(C)[C@@H]5CC[C@]43C)[C@@H]12 [Compound 44, 28-(1H-imidazol-1-yl)-lup-20(29)-en-3,28-dione] | 52.7 ± 0.5 % of cells | 20.8 ± 1.1 % of cells | 26.6 ± 0.9 % of cells | 53.1 ± 1.1 % of cells | 13.8 ± 1.1 % of cells | 33.1 ± 0.9 % of cells | 45.6 ± 2.1 % of cells | 14.9 ± 1.4 % of cells | 39.6 ± 3.6 % of cells | 16 | 20 | no effect | 68.2 ± 2.9 % of cells | 8.6 ± 0.8 % of cells | 23.2 ± 2.5 % of cells | most effective | 42 | 11 | most effective | 53 % of cells | apoptosis induction in normal liver cell line [7]: no effect
3 | C=C(C)[C@@H]1CC[C@]2(CO)CC[C@]3(C)[C@H](CC[C@@H]4[C@@]5(C)CC[C@H](OC(=O)n6ccnc6)C(C)(C)[C@@H]5CC[C@]43C)[C@@H]12 [Compound 20, 28-hydroxy-lup-20(29)-en-3β-yl-1H-imidazole-1-carboxylate] | 48.6 ± 4.4 % of cells | 15.8 ± 2.1 % of cells | 35.6 ± 3.1 % of cells | 50.6 ± 1.3 % of cells | 13.0 ± 1.4 % of cells | 36.4 ± 2.4 % of cells | 49.4 ± 1.2 % of cells | 14.5 ± 0.8 % of cells | 36.1 ± 0.8 % of cells | 12 | 17 | no effect | 68.6 ± 4.2 % of cells | 9.3 ± 1.3 % of cells | 22.0 ± 3.0 % of cells | extremely effective | 22 | 7 | extremely effective | 29 % of cells | apoptosis induction in normal liver cell line [7]: no effect
